Source: patent US9682928B2 (NeuroPro Therapeutics, Inc., priority 2009, dated 2017)

Assays:
rats = test: Fear potentiated startle (FPS) test in rats; type: in vivo, rat; details: i.v.; furosemide 100 mg/kg, bumetanide 70 mg/kg
Procedure: FPS is a commonly used assessment of therapeutic value of anxiolytic compounds in the rat. Rats received a 30 min period of habituation to the FPS apparatus. 24-hr later baseline startle amplitudes were collected. The rats will be divided into two matched groups based on baseline startle amplitudes. Following baseline startle amplitude collection 20 light/shock pairings were delivered on 2 sessions over 2 consecutive days (i.e., 10 light/shock pairings per day). On the final day, one group of rats received an injection (i.v.) of a bumetanide analog and the other group received vehicle only. Immediately following injections, startle amplitudes were assessed during startle alone trials and startle plus fear (light followed by startle) trials. Fear potentiated startle (light+startle amplitudes minus startle alone amplitudes) was compared between the treatment groups.
Animals were trained and tested in four identical stabilimeter devices (Med-Associates). Briefly, each rat was placed in a small Plexiglas cylinder. The floor of each stabilimeter consists of four 6-mm-diameter stainless steel bars spaced 18 mm apart through which shock can be delivered. Cylinder movements result in displacement of an accelerometer where the resultant voltage is proportional to the velocity of the cage displacement. Startle amplitude is defined as the maximum accelerometer voltage that occurs during the first 0.25 sec after the startle stimulus is delivered. The analog output of the accelerometer is amplified, digitized on a scale of 0-4096 units and stored on a microcomputer. Each stabilimeter is enclosed in a ventilated, light-, and sound-attenuating box. All sound level measurements were made with a Precision Sound Level Meter. The noise of a ventilating fan attached to a sidewall of each wooden box produces an overall background noise level of 64 dB. The startle stimulus is a 50 ms burst of white noise (5 ms rise-decay time) generated by a white noise generator. The visual conditioned stimulus used was illumination of a light bulb adjacent to the white noise source. The unconditioned stimulus was a 0.6 mA foot shock with duration of 0.5 sec, generated by four constant-current shockers located outside the chamber. The presentation and sequencing of all stimuli were under the control of the microcomputer.
FPS procedures consisted of 5 days of testing; during days 1 and 2 baseline startle responses were collected, days 3 and 4 light/shock pairings were delivered, day 5-testing for fear potentiated startle was conducted.
Matching. On the first two days all rats were placed in the Plexiglas cylinders and 3 min later presented with 30 startle stimuli at a 30 sec interstimulus interval. An intensity of 105 dB was used. […]

[1] = biological target: T1, δ-containing GABAA receptors (Homo sapiens, UniProt O14764); test: Whole-cell patch clamp, transfected HEK-293T cells; type: cell-based, rat or human; details: 10 μM NTP-2014
T1 construct: expressed in transfected cells; host or cells: HEK-293T, transient transfection
T1 sequence (O14764 25-452): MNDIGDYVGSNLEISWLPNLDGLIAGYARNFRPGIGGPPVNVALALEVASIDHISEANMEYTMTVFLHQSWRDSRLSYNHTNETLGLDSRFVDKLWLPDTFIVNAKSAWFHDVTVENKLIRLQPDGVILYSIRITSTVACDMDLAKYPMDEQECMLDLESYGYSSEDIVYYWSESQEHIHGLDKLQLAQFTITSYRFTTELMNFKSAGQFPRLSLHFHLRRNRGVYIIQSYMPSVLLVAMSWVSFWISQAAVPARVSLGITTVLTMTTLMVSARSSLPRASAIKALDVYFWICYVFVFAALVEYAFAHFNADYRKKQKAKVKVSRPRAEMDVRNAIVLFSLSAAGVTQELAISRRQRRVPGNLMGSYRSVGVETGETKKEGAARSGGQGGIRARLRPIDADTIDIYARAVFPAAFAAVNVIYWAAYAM
Procedure: The addition of GABA to […] activates the recombinant expressed GABAA receptors, creating an ion movement through the ion channel in the GABAA receptor. The electrical current generated by the movement of chloride ions into the cells can be quantified.
HEK-293T cells were transiently transfected with rat or human GABAA receptor subunits. Whole-cell patch clamp recording was performed at −50 mV unless otherwise indicated. Test compounds was diluted from a freshly made stock in DMSO, GABA was prepared from a frozen stock. For each experiment GABA or GABA+a test compound was applied for 5 seconds, and the electrical current generated by the movement of chloride ions into the cells was measured and recorded as a trace of current versus time.

in vivo = details: dog
mouse = test: Formalin test (acute/early and late phase) in mice; type: in vivo
Procedure: The formalin test was performed according to the method of Tjølsen, et al. (October 1992) “The formalin test: an evaluation of the method.” Pain 51(1): 5-17. An injection of 0.5% formalin is made into the plantar region of the right hind paw of a mouse. This elicits a distinct behavioral profile in response to the formalin injection characterized by the mouse licking the affected paw. The behavior is characteristically biphasic in nature. For example, immediately following the injection the mouse intensely licks the paw for approximately 5-10 minutes (“min.”) This initial behavior was considered phase 1 (acute) and is thought to be mediated primarily by chemical activation of local C-fibers. The acute phase is followed by a brief latent (usually <5 min) period where there is little or no behavioral activity. A more prolonged (about 20 to 30 min) period of licking then ensues which constitutes phase 2 of the response (late phase). See e.g., Tjølsen, et al. (Feb. 7, 1991) “Antinociceptive effect of paracetamol in rats is partly dependent on spinal serotonergic systems. Eur J Pharmacol. 193(2): 193-201 and Tjølsen, et al. (June 1991) Lesions of bulbo-spinal serotonergic or noradrenergic pathways reduce nociception as measured by the formalin test. Acta Physiol Scand. 142(2): 229-36, the disclosures of each of which are hereby incorporated by reference in its entirety.
It is in these tubes that mice are later observed for the licking activity for the duration of the experiment. Following the conditioning, the test substance was administered i.p. in a dose equivalent to the MES ED50 and the mouse returned to its home tube. At the TPE of the drug, the formalin is injected subdermally into the plantar surface of the right hind foot. It is given in a volume of 20 μl with a 27 gauge stainless steel needle attached to a Hamilton syringe. The bevel of the needle was placed facing down toward the skin surface. […] The cumulative length of licking for each 2-min time period was measured. […] Animals are euthanized following the conclusion of the experiment.
Area under the curve (AUC) and subsequent percent of control for drug-treated animal groups is determined using the GraphPad Prism Version 3.03. Total AUC was calculated for both the test and control groups for both the acute and inflammatory phases. The AUC for individual animals for each phase was also calculated and converted to percentage of total AUC of control. The average and S.E.M. for both the drug treated and control percentages were calculated and tested for significant difference.

## CCCCNc1cc(C(=O)O)cc(S(N)(=O)=O)c1Oc1ccccc1 [Bumetanide, reference compound]
rats
  Difference score on the test day vs vehicle alone: statistically significantly lower difference score
  Difference score one week after treatment vs vehicle alone: higher difference score

## CCCCN(CCCC)c1cc(C(=O)O)cc(S(N)(=O)=O)c1Oc1ccccc1 [NTP-2014, 3-Aminosulfonyl-5-N,N-dibutylamino-4-phenoxybenzoic acid]
[1]
  Effect on δ-containing receptors: unaffected
In vivo
  NOAEL at 14 day: 4.5 mg/kg

## CCCCNc1cc(C(=O)NN2CCOCC2)cc(S(N)(=O)=O)c1Oc1ccccc1 [NTP-2024, N-Morpholinyl 3-Aminosulfonyl-5-N-butylamino-4-phenoxybenzamide]
mouse; 346 μmol/kg, 150 mg/kg, p < 0.01
  Decrease in pain, Formalin Paw Test (Mice) - Late Phase: 150 mg/kg; >80%
mouse; 346 μmol/kg, 150 mg/kg, p < 0.05
  Decrease in pain, Formalin Paw Test (Mice) - Early Phase: 150 mg/kg; ~40%;
mouse; 150 mg/kg i.p., mice
  % of Control, Acute: 58.55%
  % of Control, Late Phase: 12.54%
  Treated (AUC of licking time), Acute: 80.03
  Treated (AUC of licking time), Late Phase: 76.39
